Results taken from patent US6489297B1, “Vasoactive intestinal peptide analogs” (Dabur Research Foundation, priority 2000, dated 2002).
Where a SMILES comes first, the peptide text is derived from it. [ ]: non-standard residue; d: D form. dPhe(4-Cl) = N[C@H](Cc1ccc(Cl)cc1)C(=O)O; Dpg = CCCC(N)(CCC)C(=O)O; Aib = CC(C)(N)C(=O)O

Legend:
Assay type in all cases: cell-based, human
Details in all cases: 72 hours
[1] = test system: HuTu80 (duodenum); assay: MTT cytotoxicity assay, HuTu80 cells
Experimental: (§1) The cytotoxic activity of synthesized peptides was tested on […] human tumor cell lines namely PA-1 (ovary), SW620 (colon) HuTu80 (duodenum), L132 (lung), U87MG (glioblastoma), KB (oral), MIAPaCa2(pancreas), A549(non small cell lung) and HT-29(colon). The tumor cells were collected at exponential growth phase and resuspended in medium (1.5×10^6 cells/ml in RPMI 1640 containing 10% FBS). 150 μl of medium was added to the wells of a 96-well tissue culture plate (Nunc, Denmark) followed by 30 μl of cell suspension. The plate was left in incubator (37° C., 5% CO2) overnight. 20 μl of the peptide (100 pM to 1 uM concentration) was added to marked wells of the 96-well plate. Each concentration was plated in triplicates. 20 μl of medium alone was added to control wells while wells without cells served as blanks. A total volume of 200 μl was ensured in each well and plate was left in incubator (37° C., 5% CO2). After 72 hours of incubation an MTT assay was performed and percentage cytotoxicity was calculated with respect to control cells. Following Tables show the maximum cytotoxicity achieved on various cell lines.

[2] = test system: L132 (lung); assay: MTT cytotoxicity assay, L132 cells
Experimental: as §1

[3] = test system: MIAPaCa2(pancreas); assay: MTT cytotoxicity assay, MIAPaCa2 cells
Experimental: as §1

[4] = test system: A549(non small cell lung); assay: MTT cytotoxicity assay, A549 cells
Experimental: as §1

[5] = test system: PA-1 (ovary); assay: MTT cytotoxicity assay, PA-1 cells
Experimental: as §1

[6] = test system: KB (oral); assay: MTT cytotoxicity assay, KB cells
Experimental: as §1

[7] = test system: U87MG (glioblastoma); assay: MTT cytotoxicity assay, U87MG cells
Experimental: as §1

[8] = test system: HT-29(colon); assay: MTT cytotoxicity assay, HT-29 cells
Experimental: as §1

[9] = test system: SW620 (colon); assay: MTT cytotoxicity assay, SW620 cells
Experimental: as §1

## CC[C@H](C)[C@H](NC(=O)[C@H](CO)NC(=O)[C@H](CC(N)=O)NC(=O)[C@H](CC(C)C)NC(=O)[C@H](Cc1ccc(O)cc1)NC(=O)[C@H](CCCCN)NC(=O)[C@H](CCCCN)NC(=O)[C@@H](NC(=O)[C@H](C)NC(=O)[C@H](CC(C)C)NC(=O)[C@H](CCC(N)=O)NC(=O)[C@H](CCCCN)NC(=O)[C@H](CCCNC(=N)N)NC(=O)[C@H](CC(C)C)NC(=O)[C@H](CCCNC(=N)N)NC(=O)[C@@H](NC(=O)[C@H](Cc1ccc(O)cc1)NC(=O)[C@H](CC(N)=O)NC(=O)[C@H](CC(=O)O)NC(=O)[C@@H](NC(=O)[C@@H](Cc1ccc(Cl)cc1)NC(=O)[C@@H](NC(=O)C(C)(C)NC(=O)[C@H](CC(=O)O)NC(=O)[C@H](CO)NC(=O)[C@@H](N)Cc1c[nH]cn1)C(C)C)[C@@H](C)O)[C@@H](C)O)C(C)C)C(=O)N[C@@H](CC(C)C)C(=O)N[C@@H](CC(N)=O)C(N)=O [SEQ ID NO: 2] (H-HSD[Aib]V[dPhe(4-Cl)]TDNYTRLRKQLAVKKYLNSILN-NH2)
[1]; HuTu80, 100 pM
  Percentage cytotoxicity: 10 ± 3.5%
[1]; HuTu80, 1 nM
  Percentage cytotoxicity: 20 ± 5.5%
[1]; HuTu80, 10 nM
  Percentage cytotoxicity: 18 ± 4.5%
[1]; HuTu80, 100 nM
  Percentage cytotoxicity: 24 ± 5.6%
[1]; HuTu80, 1 μM
  Percentage cytotoxicity: 39 ± 4.5%
[2]; L132, 100 pM
  Percentage cytotoxicity: 18 ± 2.3%
[2]; L132, 1 nM
  Percentage cytotoxicity: 28 ± 4.5%
[2]; L132, 10 nM
  Percentage cytotoxicity: 30.9 ± 7.0%
[2]; L132, 100 nM
  Percentage cytotoxicity: 18.9 ± 5.0%
[2]; L132, 1 μM
  Percentage cytotoxicity: 15.9 ± 7.5%
[3]; MIAPaCa2, 100 pM
  Percentage cytotoxicity: 20 ± 6.5%
[3]; MIAPaCa2, 1 nM
  Percentage cytotoxicity: 31 ± 5.0%
[3]; MIAPaCa2, 10 nM
  Percentage cytotoxicity: 35 ± 3.5%
[3]; MIAPaCa2, 100 nM
  Percentage cytotoxicity: 32 ± 4.5%
[3]; MIAPaCa2, 1 μM
  Percentage cytotoxicity: 36 ± 0.5%
[4]; A549, 100 pM
  Percentage cytotoxicity: 16 ± 5.5%
[4]; A549, 1 nM
  Percentage cytotoxicity: 19 ± 4.5%
[4]; A549, 10 nM
  Percentage cytotoxicity: 21 ± 5.5%
[4]; A549, 100 nM
  Percentage cytotoxicity: 41 ± 6.0%
[4]; A549, 1 μM
  Percentage cytotoxicity: 45 ± 5.5%
[5]; PA1, 100 pM
  Percentage cytotoxicity: 16 ± 3.3%
[5]; PA1, 1 nM
  Percentage cytotoxicity: 30.0 ± 6.7%
[5]; PA1, 10 nM
  Percentage cytotoxicity: 28.9 ± 5.5%
[5]; PA1, 100 nM
  Percentage cytotoxicity: 18.9 ± 4.2%
[5]; PA1, 1 μM
  Percentage cytotoxicity: 16.5 ± 3.4%
[6]; 100 pM
  Percentage cytotoxicity: 47 ± 8.5%
[6]; 1 nM
  Percentage cytotoxicity: 42 ± 8.0%
[6]; 10 nM
  Percentage cytotoxicity: 34 ± 6.0%
[6]; 100 nM
  Percentage cytotoxicity: 37 ± 5.0%
[6]; 1 μM
  Percentage cytotoxicity: 43 ± 0.5%
[7]; 100 pM
  Percentage cytotoxicity: 10.5 ± 4.5%
[7]; 1 nM
  Percentage cytotoxicity: 12 ± 7.6%
[7]; 10 nM
  Percentage cytotoxicity: 28.9 ± 5.6%
[7]; 100 nM
  Percentage cytotoxicity: 19.0 ± 7.0%
[7]; 1 μM
  Percentage cytotoxicity: 14 ± 4.5%
[8]; HT29, 100 pM
  Percentage cytotoxicity: 26 ± 5.5%
[8]; HT29, 1 nM
  Percentage cytotoxicity: 25 ± 4.5%
[8]; HT29, 10 nM
  Percentage cytotoxicity: 25 ± 4.5%
[8]; HT29, 100 nM
  Percentage cytotoxicity: 30 ± 5.8%
[8]; HT29, 1 μM
  Percentage cytotoxicity: 38 ± 5.5%
[9]; SW620, 100 pM
  Percentage cytotoxicity: 16.9 ± 4.5%
[9]; SW620, 1 nM
  Percentage cytotoxicity: 28 ± 6.6%
[9]; SW620, 10 nM
  Percentage cytotoxicity: 30 ± 4.5%
[9]; SW620, 100 nM
  Percentage cytotoxicity: 23 ± 3.8%
[9]; SW620, 1 μM
  Percentage cytotoxicity: 18.5 ± 5.1%

## CCCC(CCC)(NC(=O)[C@H](CCC(N)=O)NC(=O)[C@H](CCCCN)NC(=O)[C@H](CCCNC(=N)N)NC(=O)[C@H](CC(C)C)NC(=O)[C@H](CCCNC(=N)N)NC(=O)[C@@H](NC(=O)[C@H](Cc1ccc(O)cc1)NC(=O)[C@H](CC(N)=O)NC(=O)[C@H](CC(=O)O)NC(=O)[C@@H](NC(=O)[C@@H](Cc1ccc(Cl)cc1)NC(=O)[C@@H](NC(=O)C(C)(C)NC(=O)[C@H](CC(=O)O)NC(=O)[C@H](CO)NC(=O)[C@@H](N)Cc1c[nH]cn1)C(C)C)[C@@H](C)O)[C@@H](C)O)C(=O)N[C@@H](C)C(=O)N[C@H](C(=O)N[C@@H](CCCCN)C(=O)N[C@@H](CCCCN)C(=O)N[C@@H](Cc1ccc(O)cc1)C(=O)N[C@@H](CC(C)C)C(=O)N[C@@H](CC(N)=O)C(=O)N[C@@H](CO)C(=O)N[C@H](C(=O)N[C@@H](CC(C)C)C(=O)N[C@@H](CC(N)=O)C(N)=O)[C@@H](C)CC)C(C)C [SEQ ID NO: 10, His-Ser-Asp-Aib-Val-4-Cl-D-Phe-Thr-Asp-Asn-Tyr-Thr-Arg-Leu-Arg-Lys-Gln-Dpg-Ala-Val-Lys-Lys-Tyr-Leu-Asn-Ser-Ile-Leu-Asn-NH2] (H-HSD[Aib]V[dPhe(4-Cl)]TDNYTRLRKQ[Dpg]AVKKYLNSILN-NH2)
[1]; HuTu80, 100 pM
  Percentage cytotoxicity: 15 ± 7.8%
[1]; HuTu80, 1 nM
  Percentage cytotoxicity: 31 ± 7.0%
[1]; HuTu80, 10 nM
  Percentage cytotoxicity: 28 ± 5.0%
[1]; HuTu80, 100 nM
  Percentage cytotoxicity: 28 ± 8.0%
[1]; HuTu80, 1 μM
  Percentage cytotoxicity: 16 ± 4.5%
[2]; L132, 100 pM
  Percentage cytotoxicity: 15 ± 7.0%
[2]; L132, 1 nM
  Percentage cytotoxicity: 28 ± 6.0%
[2]; L132, 10 nM
  Percentage cytotoxicity: 31 ± 6.0%
[2]; L132, 100 nM
  Percentage cytotoxicity: 29 ± 5.5%
[2]; L132, 1 μM
  Percentage cytotoxicity: 17 ± 5.0%
[5]; PA1, 100 pM
  Percentage cytotoxicity: 28 ± 0.0%
[5]; PA1, 1 nM
  Percentage cytotoxicity: 31 ± 6.0%
[5]; PA1, 10 nM
  Percentage cytotoxicity: 26 ± 3.0%
[5]; PA1, 100 nM
  Percentage cytotoxicity: 25 ± 5.0%
[5]; PA1, 1 μM
  Percentage cytotoxicity: 23 ± 6.5%
[6]; 100 pM
  Percentage cytotoxicity: 12 ± 8.0%
[6]; 1 nM
  Percentage cytotoxicity: 32 ± 7.8%
[6]; 10 nM
  Percentage cytotoxicity: 26 ± 7.8%
[6]; 100 nM
  Percentage cytotoxicity: 27 ± 6.0%
[6]; 1 μM
  Percentage cytotoxicity: 30 ± 5.0%
[7]; 100 pM
  Percentage cytotoxicity: 12 ± 5.0%
[7]; 1 nM
  Percentage cytotoxicity: 16 ± 7.8%
[7]; 10 nM
  Percentage cytotoxicity: 30.1 ± 4.0%
[7]; 100 nM
  Percentage cytotoxicity: 29 ± 7.0%
[7]; 1 μM
  Percentage cytotoxicity: 29 ± 4.0%
[9]; SW620, 100 pM
  Percentage cytotoxicity: 17 ± 4.0%
[9]; SW620, 1 nM
  Percentage cytotoxicity: 30 ± 6.5%
[9]; SW620, 10 nM
  Percentage cytotoxicity: 29 ± 5.0%
[9]; SW620, 100 nM
  Percentage cytotoxicity: 24 ± 7.3%
[9]; SW620, 1 μM
  Percentage cytotoxicity: 16 ± 5.5%
